Two substances from patent publication US5098996A, “Process for introducing fluorine into biologically active materials” (The United States of America as represented by the …, priority 1988, dated 1992) can be followed below.

In experiment [1] the test system is insulin-antibody. The experiment is described as follows: insulin-antibody binding assay. The method, then:
N^α,A1,N^ε,B29 (BOC)2 insulin, 537 mg, […], was dissolved in 500 ml DMSO. FMB-Gly-OAS, 120 mg, 390 mmole in 20 ml DMSO, and 24.5 mg, 390 mmole in 2.5 ml DMSO , and 4-ethyl morpholine, 100 mg, 870 mmole in 10 ml DMSO, were added, and the reaction was allowed to remain at rom temperature for eighteen hours. The reaction was monitored by RP-HPLC until completion. One pure product was obtained, Rt=26 minutes . The eluting solvents were A, 0.1% TFA in water; B, 0.1% TFA in acetonitrile. Elution was made from 25% B to 80% in 45 minutes. The solution was lyophilized, and 50 ml neat TFA was added for five minutes, and then evaporated. The product reacted in an insulin-antibody binding assay.

In experiment [2] the target is T1, substance P receptor (Rattus norvegicus, UniProt P14600).
T1 construct: from tissue; host or cells: rat brain (per the earlier reading)
T1 sequence (P14600 whole entry): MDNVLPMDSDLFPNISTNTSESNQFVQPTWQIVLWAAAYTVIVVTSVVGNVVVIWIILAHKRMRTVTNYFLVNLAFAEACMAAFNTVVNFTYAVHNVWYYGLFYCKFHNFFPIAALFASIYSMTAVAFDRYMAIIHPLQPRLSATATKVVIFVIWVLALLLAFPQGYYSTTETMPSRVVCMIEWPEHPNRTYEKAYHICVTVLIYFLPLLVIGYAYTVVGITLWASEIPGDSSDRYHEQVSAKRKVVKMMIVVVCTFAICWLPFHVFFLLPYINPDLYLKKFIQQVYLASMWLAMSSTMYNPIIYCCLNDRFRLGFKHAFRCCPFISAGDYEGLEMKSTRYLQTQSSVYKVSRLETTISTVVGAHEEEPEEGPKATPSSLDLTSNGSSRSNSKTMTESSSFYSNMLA
The experiment is described as follows: competitive binding assay, substance P receptor, rat brain.

“FMB-Gly-Insulin: Insulin acylated with FMB-Gly active ester from N^α,A1,N^ε,B29 (BOC)2 insulin, then TFA deprotected”: the “reaction in insulin-antibody binding assay” value in experiment [1] is listed as “reacted”.
One may read the Ki as a measure of affinity in units of concentration, obtained from inhibition or displacement. The low end stands for a stronger hold on the target, the high end for a looser hold on the target. Consider “N^αFMBArgProLysProGlnGlnPhePheGlyLeuMetNH2 [Compound 29]”, for which, in experiment [2], the Ki turned out to be 1 nM.
